Assay results published in PubChem BioAssay AID330 (DTP/NCI, 2004).
Several values for one entry are separate records, joined by “and”; a condition that tells them apart may be missing. Equal entries are not always repeated. Toxic doses and inconclusive results are not listed. How the source made its calls: active means survival T/C of 150% or more; inactive means T/C below 125% in these data. Peptide text beside a SMILES is read from it. * marks the point of attachment. Boc = CC(C)(C)OC(=O)*; NHNH2 = NN*

Test system: P388 leukemia ip, CD2F1 mice, survival T/C
Experiment: NCI In Vivo Anticancer Drug Screen. Data for tumor model P388 Leukemia (intraperitoneal) in CD2F1 (CDF1) mice
Conditions: endpoint: median survival time, higher = longer survival
In short: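 Mice carrying the transplanted tumor received test compound or vehicle. Survival was recorded in each group, and the value is the treated-group measurement divided by that of the vehicle-treated control group.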

[1] = dose: 50.0 mg/kg/injection, schedule: Q01DX005 (ip), vehicle: saline
[2] = dose: 100.0 mg/kg/injection, schedule: Q01DX005 (ip), vehicle: saline
[3] = dose: 100.0 mg/kg/injection, schedule: Q01DX005 (ip), vehicle: saline with Tween-80
[4] = dose: 50.0 mg/kg/injection, schedule: Q01DX005 (ip), vehicle: saline with Tween-80
[5] = dose: 50.0 mg/kg/injection, schedule: Q01DX009 (ip), vehicle: saline with Tween-80
[6] = dose: 100.0 mg/kg/injection, schedule: Q01DX009 (ip), vehicle: saline with Tween-80
[7] = dose: 200.0 mg/kg/injection, schedule: Q01DX009 (ip), vehicle: saline with Tween-80

Measured: T/C

Cc1ccnc2cc(N(C)C)ccc12
inactive: dose: 7.5 mg/kg/injection, schedule: Q01DX005 (ip), vehicle: Klucel (hydroxypropylcellulose) (HPC) 101 % of control | dose: 15.0 mg/kg/injection, schedule: Q01DX005 (ip), vehicle: Klucel (hydroxypropylcellulose) (HPC) 98 % of control | dose: 30.0 mg/kg/injection, schedule: Q01DX005 (ip), vehicle: Klucel (hydroxypropylcellulose) (HPC) 99 % of control | dose: 60.0 mg/kg/injection, schedule: Q01DX005 (ip), vehicle: Klucel (hydroxypropylcellulose) (HPC) 92 % of control

COc1ccc(CNCCCSC)cc1
inactive: [1] 105 % of control | [2] 110 % of control

CCCCCCCCCCCC[N+](C)(CCS(=O)(=O)[O-])Cc1ccccc1 (configuration not stated)
inactive: [3] 108 % of control

O=Cc1ccc(O)c(CN2CCCCC2)c1
inactive: dose: 6.25 mg/kg/injection, schedule: Q04DX003 (ip), vehicle: saline 109 % of control | dose: 12.5 mg/kg/injection, schedule: Q04DX003 (ip), vehicle: saline 100 % of control | dose: 25.0 mg/kg/injection, schedule: Q04DX003 (ip), vehicle: saline 100 % of control

CCN(c1ccccc1)c1cc2c(cc1[N+](=O)[O-])no[n+]2[O-]
inactive: dose: 1.87 mg/kg/injection, schedule: Q01DX009 (ip), vehicle: saline 101 % of control | dose: 3.75 mg/kg/injection, schedule: Q01DX009 (ip), vehicle: saline 91 % of control | dose: 7.5 mg/kg/injection, schedule: Q01DX009 (ip), vehicle: saline 90 % of control and 97 % of control | dose: 15.0 mg/kg/injection, schedule: Q01DX009 (ip), vehicle: saline 103 % of control and 91 % of control | dose: 30.0 mg/kg/injection, schedule: Q01DX009 (ip), vehicle: saline 93 % of control

CC(C)(C)OC(=O)NC(CCC(N)=O)C(=O)ON1C(=O)CCC1=O (configuration not stated)
inactive: [4] 98 % of control | [3] 99 % of control | dose: 200.0 mg/kg/injection, schedule: Q01DX005 (ip), vehicle: saline with Tween-80 104 % of control

CCCCC([Se])=NCCC(C)C
inactive: dose: 6.25 mg/kg/injection, schedule: Q01DX009 (ip), vehicle: Klucel (hydroxypropylcellulose) (HPC) 105 % of control | dose: 12.5 mg/kg/injection, schedule: Q01DX009 (ip), vehicle: Klucel (hydroxypropylcellulose) (HPC) 108 % of control | dose: 25.0 mg/kg/injection, schedule: Q01DX009 (ip), vehicle: Klucel (hydroxypropylcellulose) (HPC) 93 % of control

CCOC(=O)CC(=O)C(F)(F)F.[Cu+2]
inactive: dose: 2.5 mg/kg/injection, schedule: Q01DX009 (ip), vehicle: saline with Tween-80 100 % of control | dose: 5.0 mg/kg/injection, schedule: Q01DX009 (ip), vehicle: saline with Tween-80 115 % of control | dose: 10.0 mg/kg/injection, schedule: Q01DX009 (ip), vehicle: saline with Tween-80 110 % of control

C=Cc1c(C)c2[nH]c1=CC1=NC(=CC3=NC(=CC4=C(C)/C(=C\NO)C(=N4)C=2)C(C)=C3CCC(=O)OC)C(CCC(=O)OC)=C1C
inactive: dose: 50.0 mg/kg/injection, schedule: Q01DX005 (ip), vehicle: Klucel (hydroxypropylcellulose) (HPC) 95 % of control | dose: 100.0 mg/kg/injection, schedule: Q01DX005 (ip), vehicle: Klucel (hydroxypropylcellulose) (HPC) 99 % of control | dose: 200.0 mg/kg/injection, schedule: Q01DX005 (ip), vehicle: Klucel (hydroxypropylcellulose) (HPC) 99 % of control

C=C1C2CCC3C(CCC4C5(C)CCCC43C3OCCN3C5)(C2)C1OC(C)=O (configuration not stated)
inactive: dose: 12.0 mg/kg/injection, schedule: Q01DX009 (ip), vehicle: Klucel (hydroxypropylcellulose) (HPC) 100 % of control | dose: 24.0 mg/kg/injection, schedule: Q01DX009 (ip), vehicle: Klucel (hydroxypropylcellulose) (HPC) 96 % of control | dose: 48.0 mg/kg/injection, schedule: Q01DX009 (ip), vehicle: Klucel (hydroxypropylcellulose) (HPC) 91 % of control

NC(=O)C1C2CCC(O2)C1C(=O)O (configuration not stated)
inactive: dose: 1.56 mg/kg/injection, schedule: Q01DX005 (ip), vehicle: Klucel (hydroxypropylcellulose) (HPC) 99 % of control | dose: 3.12 mg/kg/injection, schedule: Q01DX005 (ip), vehicle: Klucel (hydroxypropylcellulose) (HPC) 97 % of control | dose: 6.25 mg/kg/injection, schedule: Q01DX005 (ip), vehicle: Klucel (hydroxypropylcellulose) (HPC) 95 % of control

COC(=O)CC1(O)C=CC(=O)c2ccccc21 (configuration not stated)
inactive: dose: 12.5 mg/kg/injection, schedule: Q01DX005 (ip), vehicle: saline with Tween-80 94 % of control | dose: 25.0 mg/kg/injection, schedule: Q01DX005 (ip), vehicle: saline with Tween-80 100 % of control | [4] 109 % of control | [3] 112 % of control

CC(C)(CCl)C(=O)NN=C(c1ccccc1)c1ccccc1
inactive: [5] 107 % of control | [6] 107 % of control | [7] 110 % of control

Cc1ccccc1N
inactive: dose: 50.0 mg/kg/injection, schedule: Q01DX009 (ip), vehicle: saline sonified 100 % of control | dose: 100.0 mg/kg/injection, schedule: Q01DX009 (ip), vehicle: saline sonified 100 % of control | dose: 200.0 mg/kg/injection, schedule: Q01DX009 (ip), vehicle: saline sonified 104 % of control

COC(=O)[C@]1(C)CCC[C@]2(C)c3ccc(C(C)C)cc3C(=O)C[C@@H]12
inactive: dose: 60.0 mg/kg/injection, schedule: Q01DX005 (ip), vehicle: saline with Tween-80 95 % of control | dose: 120.0 mg/kg/injection, schedule: Q01DX005 (ip), vehicle: saline with Tween-80 94 % of control | dose: 240.0 mg/kg/injection, schedule: Q01DX005 (ip), vehicle: saline with Tween-80 93 % of control

CCC[As](C)SCC1OC(OC(C)=O)C(OC(C)=O)C(OC(C)=O)C1OC(C)=O (configuration not stated)
inactive: [5] 110 % of control | [6] 102 % of control | [7] 118 % of control

Cc1ccc(NC(=O)OCCN(C)C)cc1Cl
inactive: dose: 60.0 mg/kg/injection, schedule: Q01DX005 (ip), vehicle: Klucel + Tween-80 101 % of control | dose: 120.0 mg/kg/injection, schedule: Q01DX005 (ip), vehicle: Klucel + Tween-80 99 % of control | dose: 240.0 mg/kg/injection, schedule: Q01DX005 (ip), vehicle: Klucel + Tween-80 91 % of control

CC(C)C(NC(=O)C(Cc1c[nH]c2ccccc12)NC(=O)OC(C)(C)C)C(=O)NN (stereo not drawn) (Boc-Trp-Val-NHNH2; configuration not given here)
inactive: dose: 12.5 mg/kg/injection, schedule: Q01DX009 (ip), vehicle: other 98 % of control | dose: 25.0 mg/kg/injection, schedule: Q01DX009 (ip), vehicle: other 98 % of control | dose: 50.0 mg/kg/injection, schedule: Q01DX009 (ip), vehicle: other 91 % of control | dose: 100.0 mg/kg/injection, schedule: Q01DX009 (ip), vehicle: other 89 % of control | dose: 200.0 mg/kg/injection, schedule: Q01DX009 (ip), vehicle: other 94 % of control

CN(C)CCNC1c2ccccc2CCc2ccccc21
inactive: [1] 104 % of control | [2] 100 % of control

COc1ccc(C(C)c2cc3c(cc2OCC(=O)O)OCO3)cc1OC (configuration not stated)
inactive: dose: 50.0 mg/kg/injection, schedule: Q01DX005 (ip), vehicle: distilled water + Tween-80 95 % of control | dose: 100.0 mg/kg/injection, schedule: Q01DX005 (ip), vehicle: distilled water + Tween-80 102 % of control

COc1ccc(C(=O)CCN(C)C)c(OC)c1
inactive: dose: 15.0 mg/kg/injection, schedule: Q01DX005 (ip), vehicle: saline 102 % of control | dose: 30.0 mg/kg/injection, schedule: Q01DX005 (ip), vehicle: saline 94 % of control | dose: 60.0 mg/kg/injection, schedule: Q01DX005 (ip), vehicle: saline 106 % of control and 109 % of control

CC(/C=C/c1ccccc1)=N\Nc1ccc(Cl)c(Cl)c1
inactive: dose: 50.0 mg/kg/injection, schedule: Q01DX009 (ip), vehicle: Klucel (hydroxypropylcellulose) (HPC) 102 % of control | dose: 100.0 mg/kg/injection, schedule: Q01DX009 (ip), vehicle: Klucel (hydroxypropylcellulose) (HPC) 102 % of control | dose: 200.0 mg/kg/injection, schedule: Q01DX009 (ip), vehicle: Klucel (hydroxypropylcellulose) (HPC) 100 % of control
